{"source": "patent US12357631B2", "about": "(priority 2018, dated 2025)"}
{"molecular_target": "PB2 (Influenza A virus, UniProt P03428)", "sequence (P03428 whole entry, looked up)": "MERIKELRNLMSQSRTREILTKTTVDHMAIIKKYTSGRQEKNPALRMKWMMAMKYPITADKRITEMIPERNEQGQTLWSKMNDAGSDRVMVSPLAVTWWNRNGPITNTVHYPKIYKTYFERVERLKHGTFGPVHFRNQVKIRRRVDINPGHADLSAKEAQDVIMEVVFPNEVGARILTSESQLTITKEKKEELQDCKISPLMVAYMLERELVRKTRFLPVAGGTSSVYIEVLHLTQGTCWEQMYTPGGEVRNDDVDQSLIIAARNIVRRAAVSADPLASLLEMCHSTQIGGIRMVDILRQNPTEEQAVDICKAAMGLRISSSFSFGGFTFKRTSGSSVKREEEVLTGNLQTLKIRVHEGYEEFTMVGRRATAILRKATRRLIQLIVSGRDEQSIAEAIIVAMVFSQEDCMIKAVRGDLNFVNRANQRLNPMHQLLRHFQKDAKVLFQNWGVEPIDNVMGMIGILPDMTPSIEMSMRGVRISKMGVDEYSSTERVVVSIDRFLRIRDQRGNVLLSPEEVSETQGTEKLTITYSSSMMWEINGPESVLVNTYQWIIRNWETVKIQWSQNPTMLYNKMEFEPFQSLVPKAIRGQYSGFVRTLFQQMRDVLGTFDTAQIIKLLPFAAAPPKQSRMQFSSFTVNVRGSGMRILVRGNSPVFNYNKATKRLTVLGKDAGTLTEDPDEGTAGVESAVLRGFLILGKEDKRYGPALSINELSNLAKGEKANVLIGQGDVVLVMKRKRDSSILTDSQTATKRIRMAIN", "assay": "biochemical", "format": "binding", "units": {"EC50": "µM"}}
{"smiles": "CCOCCOCCCCCN(Cc1ccccn1)C(=O)N[C@@H]1CCC[C@H](Nc2nc(-c3c[nH]c4ncc(F)cc34)ncc2F)C1", "note": "[Compound A207]", "EC50": "50 to 100"}
{"smiles": "O=C(CNC(=O)OCc1ccnc(C(=O)N[C@H]2CCC[C@@H](Nc3nc(-c4c[nH]c5ncc(F)cc45)ncc3F)C2)c1)Nc1ccccc1C(=O)O", "note": "[Compound A129]", "EC50": "< 5"}
{"smiles": "CCNC(=O)C(NC(=O)OCc1ccnc(C(=O)N[C@H]2CCC[C@@H](Nc3nc(-c4c[nH]c5ncc(F)cc45)ncc3F)C2)c1)C(C)(C)C", "note": "(stereo partly drawn) [Compound A149]", "EC50": "> 100"}
{"smiles": "CCOCCCCCCCCN(C)C(=O)N[C@H]1CCC[C@@H](Nc2nc(-c3c[nH]c4ncc(F)cc34)ncc2F)C1", "note": "[Compound A211]", "EC50": "> 100"}
{"smiles": "O=C(N[C@H]1CCC[C@@H](Nc2nc(-c3c[nH]c4ncc(F)cc34)ncc2F)C1)N1CCc2ccccc2C1", "note": "[Compound A2]", "EC50": "> 100"}
{"smiles": "Cc1cccc(C(=O)N[C@H]2CCC[C@@H](Nc3nc(-c4c[nH]c5ncc(F)cc45)ncc3F)C2)n1", "note": "[Compound A47]", "EC50": "5 to 25"}
{"smiles": "O=C(N[C@@H]1CCC[C@H](Nc2nc(-c3c[nH]c4ncc(F)cc34)ncc2F)C1)c1cc(CCCOCCOCc2ccccc2)ccn1", "note": "[Compound A34]", "EC50": "> 100"}
{"smiles": "O=C(NCCc1ccc(Oc2ccccc2)cc1)OCc1ccnc(C(=O)N[C@H]2CCC[C@@H](Nc3nc(-c4c[nH]c5ncc(F)cc45)ncc3F)C2)c1", "note": "[Compound A100]", "EC50": "> 100"}
{"smiles": "CN(CCOCCOCCOCCC(=O)O)C(=O)N[C@H]1CCC[C@@H](Nc2nc(-c3c[nH]c4ncc(F)cc34)ncc2F)C1", "note": "[Compound A171]", "EC50": "25 to 50"}
{"smiles": "NCCOCCOCCOCC(=O)N[C@@H]1CCC[C@H](Nc2nc(-c3c[nH]c4ncc(F)cc34)ncc2F)C1", "note": "[Compound A267]", "EC50": "25 to 50"}
{"smiles": "CCOCCOCc1cc(-c2ccnc(C(=O)N[C@H]3CCC[C@@H](Nc4nc(-c5c[nH]c6ncc(F)cc56)ncc4F)C3)c2)ccc1F", "note": "[Compound A113]", "EC50": "> 100"}
{"smiles": "CCOCCOCCCc1cncc(C(=O)N[C@H]2CCC[C@@H](Nc3nc(-c4c[nH]c5ncc(F)cc45)ncc3F)C2)c1", "note": "[Compound A23]", "EC50": "> 100"}
{"smiles": "O=C(NCc1cccc(F)c1)OCc1ccnc(C(=O)N[C@H]2CCC[C@@H](Nc3nc(-c4c[nH]c5ncc(F)cc45)ncc3F)C2)c1", "note": "[Compound A125]", "EC50": "> 100"}
{"smiles": "CCOCCOCCCCCN(C(=O)N[C@H]1CCC[C@@H](Nc2nc(-c3c[nH]c4ncc(F)cc34)ncc2F)C1)C1CC1", "note": "[Compound A242]", "EC50": "> 100"}
{"smiles": "CCCCc1ccnc(C(=O)N[C@H]2CCC[C@@H](Nc3nc(-c4c[nH]c5ncc(F)cc45)ncc3F)C2)c1", "note": "[Compound A42]", "EC50": "> 100"}
{"smiles": "CCOCCOCCOCCNC(=O)N[C@H]1CCC[C@@H](Nc2nc(-c3ccnc(Cl)c3)ncc2F)C1", "note": "[Compound A197]", "EC50": "> 100"}
{"smiles": "CCOCCC(=O)N(CC)Cc1ccnc(C(=O)N[C@@H]2CCC[C@H](Nc3nc(-c4c[nH]c5ncc(F)cc45)ncc3F)C2)c1", "note": "[Compound A69]", "EC50": "< 5"}
{"smiles": "O=C(NCc1ccccn1)OCc1ccnc(C(=O)N[C@H]2CCC[C@@H](Nc3nc(-c4c[nH]c5ncc(F)cc45)ncc3F)C2)c1", "note": "[Compound A96]", "EC50": "5 to 25"}
{"smiles": "CCOc1ccccc1CNC(=O)OCc1ccnc(C(=O)N[C@H]2CCC[C@@H](Nc3nc(-c4c[nH]c5ncc(F)cc45)ncc3F)C2)c1", "note": "[Compound A133]", "EC50": "> 100"}
{"smiles": "CN(CCOCCOCCOCCN)C(=O)N[C@@H]1CCC[C@H](Nc2nc(-c3c[nH]c4ncc(F)cc34)ncc2F)C1", "note": "[Compound A173]", "EC50": "50 to 100"}
{"smiles": "O=C(N[C@@H]1CCC[C@H](Nc2nc(-c3c[nH]c4ncc(F)cc34)ncc2F)C1)c1ccc(-c2ccccc2)nc1", "note": "[Compound A63]", "EC50": "5 to 25"}
{"smiles": "CCCOCCCCCCCN(C)C(=O)N[C@@H]1CCC[C@H](Nc2nc(-c3c[nH]c4ncc(F)cc34)ncc2F)C1", "note": "[Compound A235]", "EC50": "50 to 100"}
{"smiles": "Cc1ccc(CNC(=O)OCc2ccnc(C(=O)N[C@H]3CCC[C@@H](Nc4nc(-c5c[nH]c6ncc(F)cc56)ncc4F)C3)c2)cc1", "note": "[Compound A138]", "EC50": "> 100"}
{"smiles": "CCOC1CCCCC1OCCCCCN(C)C(=O)N[C@H]1CCC[C@@H](Nc2nc(-c3c[nH]c4ncc(F)cc34)ncc2F)C1", "note": "(stereo partly drawn) [Compound A245]", "EC50": "> 100"}
